This assay deals with T1, PHKG2 (Homo sapiens, UniProt P15735).
T1 construct: purchased Thermo Fisher Scientific (Life Technologies) SelectScreen
Put plainly: SelectScreen Z'LYTE. It is filed as biochemical. Summed up: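 NU5455 was profiled across the SelectScreen Broad panel of kinase activity and binding assays. Z'LYTE reactions such as CSF1R ran at apparent Km ATP, while the Adapta CAMK1 assay used ATP listed as 10. Values are given as percent.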

T1 sequence (P15735 whole entry): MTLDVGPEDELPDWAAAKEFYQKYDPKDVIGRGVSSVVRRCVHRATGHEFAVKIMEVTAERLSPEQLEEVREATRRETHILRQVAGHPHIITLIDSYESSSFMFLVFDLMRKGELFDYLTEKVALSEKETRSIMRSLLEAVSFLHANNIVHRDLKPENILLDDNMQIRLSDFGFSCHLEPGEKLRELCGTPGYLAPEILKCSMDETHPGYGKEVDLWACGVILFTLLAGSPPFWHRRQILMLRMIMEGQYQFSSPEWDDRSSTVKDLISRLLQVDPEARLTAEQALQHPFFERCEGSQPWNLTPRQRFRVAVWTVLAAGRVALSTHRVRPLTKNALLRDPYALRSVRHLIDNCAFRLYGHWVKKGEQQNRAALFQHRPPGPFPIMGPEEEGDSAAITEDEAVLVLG

On to `CN(C(=O)CN1CCOCC1)c1ccc2sc3c(-c4cccc5c(=O)cc(N6CC7CCC(C6)O7)oc45)cccc3c2c1` [NU5455], for which the inhibition at 1 µM was -3.6%.

A word on the inhibition: it is the change of the read-out against control, counted positive when it falls.

These data come from article PMC6934184, “Selective DNA-PKcs inhibition extends the therapeutic index of localized radiotherapy and chemotherapy” (The Journal of Clinical Investigation, 2019).
